We go through 4 compounds from publication PMC6151660 (Molecules : A Journal of Synthetic Chemistry and Natural …, 2017).

A short description of series [1]: Chinese hamster ovary cell cytotoxicity MTT assay. Particulars: CHO cells. As for the experimental part: Cytotoxicity was evaluated on CHO cells utilizing a standard 3-[4,5-dimethylthiazol-2-yl]-2,5-diphenyl tetrazolium bromide (MTT) assay. The MTT is a yellow tetrazolium salt that is reduced to purple formazan in the presence of living cells. This reduction reaction was used to measure growth and chemosensitivity. The test samples were tested in triplicate on one occasion. Cells were seeded in microtiter plates at a density of 10^5 cells/mL and incubated for 24 h prior to exposure. The test samples were prepared to a 20 mg/mL stock solution in 10% methanol or 10% DMSO and were tested as a suspension if not properly dissolved. Test compounds were stored at −20 °C until use, and administered in volumes of 100 µL to the plated cells. Emetine was used as the reference drug in all experiments. […] Plates were developed after 44 h of exposure to the drug by the addition of a solution of MTT. After four hours, further incubation at 37 °C the supernatant was removed from the cells via suction and DMSO was added to each well to dissolve the reduced dye crystals. […] The amount of formazan produced in wells containing untreated cells only and growth medium only represent 100% survival and 0% survival respectively, and the amount in each treatment well was converted to a survival percentage relative to these two extremes. The IC50 values were obtained from full dose-response curves, using a non-linear dose-response curve fitting analysis via GraphPad Prism v.4 software.

Series [2] deals with T1, BSA (Bos taurus, UniProt P02769).
T1 construct: purchased Sigma Aldrich (Kempton Park, South Africa)
T1 sequence (P02769 25-607): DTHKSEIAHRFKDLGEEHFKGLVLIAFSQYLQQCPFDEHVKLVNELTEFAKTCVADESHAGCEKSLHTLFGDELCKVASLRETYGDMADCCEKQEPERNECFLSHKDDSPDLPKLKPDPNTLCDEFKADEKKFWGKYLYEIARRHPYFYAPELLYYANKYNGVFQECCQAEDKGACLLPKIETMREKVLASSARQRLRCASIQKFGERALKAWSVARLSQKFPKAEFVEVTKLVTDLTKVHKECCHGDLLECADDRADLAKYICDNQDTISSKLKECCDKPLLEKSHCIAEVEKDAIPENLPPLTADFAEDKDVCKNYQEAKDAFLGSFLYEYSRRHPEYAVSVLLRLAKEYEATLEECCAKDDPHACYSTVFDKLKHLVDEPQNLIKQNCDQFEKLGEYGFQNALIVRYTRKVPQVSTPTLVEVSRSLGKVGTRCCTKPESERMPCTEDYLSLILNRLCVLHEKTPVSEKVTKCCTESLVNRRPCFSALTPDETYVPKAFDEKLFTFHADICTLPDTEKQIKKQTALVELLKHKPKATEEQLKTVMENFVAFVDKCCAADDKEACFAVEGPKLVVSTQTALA
Briefly: Bovine serum albumin binding assay (fluorescence quenching). The following applies: BSA 1.00 × 10^−5 mol L^−1, 22 °C, ex 295 nm. An excerpt:
The mechanism of the fluorescent quenching of CM14 and CM15 to BSA is described using the Stern-Volmer equation:F0/F = 1 + ksv[Q] = 1 + kq τ0[Q] where F0 and F are the fluorescence intensities before and after the addition of the quencher, respectively; ksv is the dynamic quenching constant; kq is the quenching rate constant; [Q] is the concentration of quencher; τ0 is the average lifetime of the molecule without quencher and its value is considered to be 10^−8 s. The plots show a good linear relationship within the investigated concentrations of CM14 and CM15.
The interaction between coumarin derivatives (CM14 and CM15) and BSA were measured by fluorescence spectroscopy. BSA (≥98%) was obtained from Sigma Aldrich (Kempton Park, South Africa) and dissolved in a Tris–HCl (0.10 mol L^−1, pH = 7.4) buffer to form the BSA solution with a concentration of 1.00 × 10^−5 mol L^−1. A Tris–HCl buffer (0.10 mol L^−1, pH = 7.4) containing 0.10 mol L^−1 NaCl was selected to keep the pH value constant and to maintain the ionic strength of the solution. CM14 and CM15 stock solution (1.00 × 10^−3 mol L^−1) was prepared in MeOH. […] Fluorescence spectra were recorded on a Synergy Mx fluorescence plate reader (BioTek, Winooski, VT, USA). […] Fluorescence spectra were measured in the range of 315–500 nm at the excitation wavelength of 295 nm. […]

Series [3] relates to M. tuberculosis H37Rv:pCHERRY3. Briefly: microbe, parasite or virus in culture. It is filed as cell-based. The following applies: Mycobacterium tuberculosis.
Series [4] deals with M. tuberculosis H37RvMA pMSP12:GFP. Nature of the series: microbe, parasite or virus in culture. Particulars: Mycobacterium tuberculosis. Format: cell-based.
The subject of series [5] is SH-SY5Y cells. Briefly: SH-SY5Y cytotoxicity MTT assay. Format: cell-based, human. The following applies: 48 h. As to the method:
(§1) The human neuroblastoma cell line SH-SY5Y was generously donated by our collaborator at the Division of Molecular Biology and Human Biology, Stellenbosch University, Tygerberg, Cape Town. Cells were cultured in monolayer using Dulbecco Modified Eagles Medium (DMEM, Gibco, Life Technologies Ltd. Carlsbad, CA, USA) supplemented with 10% fetal bovine serum (FBS, Gibco, Life Technologies Ltd.) and 1% 100 U/mL penicillin and 100 μg/mL streptomycin (Lonza Group Ltd., Basel, Switzerland). Cells were grown at 37 °C, in a humidified atmosphere at 5% CO2. Media were replaced every two to three days and cells were sub-cultured by splitting with trypsin (Lonza Group Ltd.).
(§2) The standard MTT assay which measures cell metabolic activity was used to determine cytotoxicity of CM14, CM15 and CM9 as described by Mosmann. Briefly, SH-SY5Y cells were plated in flat bottom 96 well plates in growth medium as stated in Section 3.7.1 at a density of 7500 cells/well. Cells were allowed to adhere to the plate surface for 24 h and used media were replaced with fresh media containing test compounds at 10 µM, 50 µM and 100 µM. Vehicle control cells were treated with DMSO (solvent for dissolving test compounds) at a concentration similar to the amount contained in the highest concentration of test compounds. After 48 h, 10 µL of MTT solution (5 mg/mL) was added to each well and incubated for 4 h and the purple formazan formed was solubilized with 100 µL DMSO and plates were read spectrophotometrically to determine absorbance at 570 nm using a BMG Labtech POLARStar Omega multimodal plate reader.

A short description of series [6]: SH-SY5Y cytotoxicity MTT assay. The following applies: human, SH-SY5Y neuroblastoma cells, MTT, read-out: CC 50% SH-SY5Y (range where 50% cell toxicity will be observed). Format: cell-based, human. As for the experimental part: as §1, §2
Series [7] addresses equine butyrylcholinesterase (BuChE). Details: method as in Joubert et al., 2017 [23]. Particulars: ref Joubert et al., 2017 [23]; cited from earlier work.
For series [8], the system named is SH-SY5Y cells. Nature of the series: MPP+-induced cytotoxicity in SH-SY5Y cells (neuroprotection). Particulars: 1 µM compound, 1000 μM MPP+ for 48 h, untreated control 100%.
In series [9] the test system is electric eel AChE. Set-up: method as in Joubert et al., 2017 [23]. Particulars: ref Joubert et al., 2017 [23]; cited from earlier work.
In series [10] the test system is Mycobacterium tuberculosis H37Rv. Briefly: microbe, parasite or virus in culture. Format: cell-based. Particulars: 120 h, day 5, read-out: % M. tuberculosis Growth, Day 5; for activity at 1 µM: 1 µM compound; for activity at 50 µM: 50 µM compound; for activity at 100 µM: 100 µM compound.
Series [11] deals with M. tuberculosis, H37Rv. Particulars: cited from earlier work.
Series [12] deals with M. tuberculosis. The following applies: cited from earlier work.

In brackets after ≈: the same amount, converted by molar mass.

As usually defined, the IC50 is the concentration needed to halve the response being measured. Broadly, the MIC is the lowest concentration found to suppress growth.

In series [1], `O=c1cc(C(F)(F)F)c2ccc(OCCN3CCN(Cc4ccc(Br)cc4)CC3)cc2o1` [CM15] showed a CC50 at 44 h of 26.3 µM. Moreover, in series [2], the “ksv (dynamic quenching constant)” value came to 488000 mol/L. In series [3], this compound gave an MIC90 of 43.8 µM (≈ 22.4 µg/mL) and an MIC99 of 57.2 µM (≈ 29.2 µg/mL). In series [4], this compound displayed an MIC90 of 3.2 µM (≈ 1.64 µg/mL) and an MIC99 of 8.31 µM (≈ 4.25 µg/mL). Moreover, the “effect on viability of SH-SY5Y cells” value in series [5] (10 µM) is listed as “did not significantly affect”. Moreover, the “effect on viability of SH-SY5Y cells” value in [5] (50 µM and 100 µM) is “significantly (p < 0.001) affected”. Moreover, in [6], the CC50 at 48 h fell in the range of 10 to 50 µM. For the same compound, in series [7], the IC50 is greater than 100 µM. The “cell survival restored after MPP+ exposure” value in [8] turned out to be 81.05 ± 6.83%. Besides, the IC50 in series [9] was greater than 100 µM. Moreover, in series [10], the activity at 1 µM is 107%, the activity at 50 µM was found to be 6.68% and the activity at 100 µM turned out to be 4.88%.
`Cc1c(C#N)c(=O)oc2cc(OCCN3CCN(Cc4ccc(Br)cc4)CC3)ccc12` [CM14] displayed a CC50 at 44 h in series [1] of 41.2 µM. Further, the “ksv (dynamic quenching constant)” value in [2] amounted to 380000 mol/L. In series [3], this compound registered an MIC90 of 45.2 µM (≈ 21.8 µg/mL) and an MIC99 of 54.5 µM (≈ 26.3 µg/mL). Further, in series [4], the MIC90 came to 16.7 µM (≈ 8.06 µg/mL) and the MIC99 is 28 µM (≈ 13.5 µg/mL). Moreover, the “effect on viability of SH-SY5Y cells” value in series [5] (10 µM) is reported as “did not significantly affect”. Also, in [5] (50 µM and 100 µM), the “effect on viability of SH-SY5Y cells” value was “significantly (p < 0.001) affected”. Besides, the CC50 at 48 h in series [6] was in the range of 50 to 100 µM. Further, the IC50 in series [7] is 13.3 µM. Moreover, in series [8], the “cell survival restored after MPP+ exposure” value stood at 101.2 ± 6.00%. Further, the IC50 in [9] is 38.5 µM. In addition, in series [10], the activity at 1 µM was 99.5%, the activity at 50 µM turned out to be 4.4% and the activity at 100 µM came out at 4.44%.
Take `CO[C@@H]1[C@@H](OC(N)=O)[C@@H](O)[C@H](Oc2ccc3c(O)c(NC(=O)c4ccc(O)c(CC=C(C)C)c4)c(=O)oc3c2C)OC1(C)C` [Novobiocin]: the MIC result in series [11] is given as “approximately 6.5 µM”.
Turning to `COc1ccc2cc(-n3cc(COc4nc(-c5ccccn5)sc4C(N)=O)nn3)c(=O)oc2c1` [Compound 3], the MIC in series [12] is on record as 6.5 µM (≈ 3.1 µg/mL).
